The test system of this assay is Cladosporium cucumerinum. Description: Antifungal activity against Cladosporium cucumerinum after 3 days. The format is functional.
`C/C(=C/C(=O)O)CC[C@]1(C)[C@@H](C)CC[C@]2(C)[C@H]1CC[C@@H](O)[C@@]2(C)O` registered an Activity of 10 µg.

Consider `CC1=CC(=O)C[C@H]2[C@](C)(CC/C(C)=C/C(=O)O)[C@@H](C)CC[C@]12C`, for which the Activity was over 100 µg.

Regarding `C/C(=C\C(=O)O)CC[C@@]1(C)[C@H]2CC[C@H]3O[C@@]3(C)[C@@]2(C)CC[C@@H]1C`, the Activity is 10 µg.

On to `CC1=CC(=O)C[C@H]2[C@](C)(CC/C(C)=C/C(=O)O)[C@H](C)CC[C@@]12C`, for which the Activity worked out at 100 µg.

With `C/C(=C\C(=O)O)CC[C@]1(C)[C@H](C)CC[C@]2(C)[C@H]1CC[C@H](O)[C@@]2(C)O`, the Activity is over 100 µg.

Take `C=C1CC[C@@H]2C(C)(C)CCC[C@@]2(C)[C@@H]1CC/C(C)=C/C(=O)O` [COPALIC ACID]: the Activity is over 100 µg.

In turn, `Clc1ccc(COC(Cn2ccnc2)c2ccc(Cl)cc2Cl)c(Cl)c1` (configuration not stated) [MICONAZOLE] had an Activity of 1 µg.

Values taken from ChEMBL document CHEMBL1157942, “Bioactive diterpenes from the fruits of Detarium microcarpum” (2006).
